Article PMC11320730, “5-Methoxy-2-aminoindane Reverses Diet-Induced Obesity and Improves Metabolic Parameters in Mice: A Potential New Class of Antiobesity Therapeutics” (ACS Pharmacology & Translational Science, 2024)

Experiments:
C57Bl/6 mice [1] = test: Acute effect of MEAI on wheel running and locomotor activity; type: in vivo; settings: lean male mice, vs vehicle
Experimental: (§1) Male 6-week-old C57Bl/6 mice (Harlan, Israel) were maintained in standard conditions under a 12 h light/dark cycle and fed ad libitum. A total of 32 animals were divided into four experimental groups (N = 8 mice per group) receiving single doses of 40, 60, or 100 mg/kg of MEAI or vehicle (sterile water), which was administered via oral gavage 2 h prior to the dark phase. The animals were monitored for 48 h postdose for drug tolerability, food and water intakes, and activity and metabolic parameters. At the end of the experiment, the animals were euthanized, and tissues (brain, liver, fat, and kidney) and blood were collected and stored in a frozen state for future analyses.
The activity energy expenditure was calculated based on eq 7: [drawing 7] 7
The assessment of wheel running and locomotor activity was performed by using the Promethion High-Definition Behavioral Phenotyping System (Sable Instruments, Inc., Las Vegas, Nevada, USA). Wheel revolutions were measured with a monitor that recorded voluntary wheel running activity, and locomotor activity was quantified using disruptions of infrared XYZ beam arrays with a beam spacing of 0.25 cm. Pedestrian locomotion represented the sum of all directed ambulatory locomotion within the beam break system, using a speed cutoff of 1 cm/s. Total distance represented the sum of all distances traveled within the beam break system, not including any distance run on the wheel in meters (m); this included fine movements (such as grooming and scratching).

DIO C57BL/6 mice = test: Effect of MEAI on obesity: body weight and body composition (EchoMRI) in DIO mice; type: in vivo; settings: 28 days
Experimental: (§2) Male C57BL/6 mice were used to establish DIO by feeding them a high-fat diet (HFD; 60% cal/L fat, 20% cal/L protein, and 20% cal/L carbohydrates; Research Diet, D12492) for 18 weeks. After this period, mice were treated with either vehicle (sterile water, N = 8) or MEAI (N = 11) daily for 28 days by gavage at a dose of 40 mg/kg/day. Age-matched control mice (N = 10) on a standard diet (STD; 14% kcal fat, 24% kcal protein, 62% kcal carbohydrates; NIH-31 rodent diet) received vehicle daily. The body weight of all mice was monitored daily, and total body fat and lean mass were determined by EchoMRI-100H (Echo Medical Systems LLC, Houston, Texas, USA). On day 29, at the end of the experimental period, mice were euthanized by a cervical dislocation under anesthesia. The kidneys, brain, liver, and fat pads were removed and weighed, and samples were either snap-frozen or fixed in buffered 4% formalin. Trunk blood was collected to determine the biochemical parameters.

C57Bl/6 mice [2] = test: Acute effect of MEAI on food and water intake and metabolic parameters (Promethion); type: in vivo; settings: lean male mice, vs vehicle
Experimental: as §1
The metabolic profiles and food and water intakes of the mice were assessed using the Promethion High-Definition Behavioral Phenotyping System (Sable Instruments, Inc., Las Vegas, Nevada, USA). MetaScreen software version 2.2.18.0 was used for data acquisition and instrument control. Raw data were processed using ExpeData version 1.8.4 with an analysis script detailing all aspects of the data transformation. Mice with free access to food and water, housed at temperatures of (22–23 °C), were subjected to a standard 12 h light/12 h dark cycle, which consisted of a 48 h acclimation period followed by 24 h of sampling after dosing. Respiratory gases were measured using the GA-3 gas analyzer (Sable Systems, Inc., Las Vegas, Nevada, USA) employing a pull-mode negative-pressure system. Airflow was measured and controlled by an FR-8 instrument (Sable Systems, Inc., Las Vegas, Nevada, USA) at a flow rate of 2000 mL/min. Water vapor was continuously measured, and its dilution effect on O2 and CO2 was mathematically compensated. Respiratory exchange rate (RER) was calculated as the ratio of CO2 produced (VCO2) to O2 consumed (VO2) using eq 1): [drawing 1] 1
Total energy expenditure (TEE) was calculated using VO2 and RER, according to eq 2: [drawing 2] 2
Fat oxidation (FO) and carbohydrate oxidation (CHO) were calculated using VO2 and VCO2 based on eqs 3 and 4, respectively: [drawing 3] 3 [drawing 4] 4
Energy balance and energy flux were derived from eqs 5 and 6: [drawing 5] 5 [drawing 6] 6

[3] = system: hepatic lipid metabolism genes; test: Real-time PCR of liver mRNA in DIO mice; type: in vivo; settings: 40 mg/kg/day
Experimental: as §2
mRNA from livers was extracted using a Bio-Tri RNA lysis buffer (Bio-Lab, Israel), followed by DNase I treatment (Thermo Scientific, Illinois, USA), and reverse transcribed using the qScript cDNA Synthesis kit (Quantabio, Beverly, Massachusetts, USA). Real-time PCR was performed using an iTaq Universal SYBR Green Supermix (Bio-Rad, California, USA) and the CFX connect ST system (Bio-Rad, California, USA). The full list of primers is available as Table S1.

[4] = system: vesicular monoamine transporter (VMAT); parameters: method as in PMID 29458138; settings: cited from earlier work
5-HT1A receptor = molecular target: 5-HT1A receptor; parameters: method as in PMID 30904940; settings: cited from earlier work
5-HT2B receptor = system: 5-HT2B receptor; parameters: method as in PMID 29458138; settings: cited from earlier work
[5] = single oral dose 40, 60 or 100 mg/kg
[6] = single oral dose, all doses (40, 60, 100 mg/kg)

## COc1ccc2c(c1)CC(N)C2.Cl (stereo not drawn) [MEAI, 2,3-Dihydro-5-methoxy-1H-inden-2-amine hydrochloride]
C57Bl/6 mice [1]; single oral dose 60 mg/kg
  pedestrian speed: significant increase
C57Bl/6 mice [1]; [5]
  total number of beam breaks (ambulation and fine movements): minor alterations
C57Bl/6 mice [1]; single oral dose, 40 mg/kg and above
  directed voluntary activity (pedestrian locomotion): significant and dose-dependent increase
C57Bl/6 mice [1]; [6]
  average distance traveled within the cage: significant elevations
  total distance traveled within the cage: significant elevations
C57Bl/6 mice [1]; single oral dose, any dose tested
  sum of voluntary wheel running activity: did not significantly affect
C57Bl/6 mice [1]; single oral dose
  activity-specific energy expenditure: modest insignificant rise
DIO C57BL/6 mice; DIO mice, 40 mg/kg/day by gavage, compared to obese vehicle-treated group
  decrease in total body weight: ~15%
DIO C57BL/6 mice; DIO mice, 40 mg/kg/day
  adiposity associated with obesity: reduced
  lean body mass ratio: maintaining
  net lean mass: maintaining
  overall fat mass: reducing
DIO C57BL/6 mice; HFD-fed (DIO) mice, 40 mg/kg/day by gavage
  body weight: significantly reduced
C57Bl/6 mice [2]; single oral dose 40, 60 or 100 mg/kg, across 24 h
  hourly average energy expenditure (TEE/h): significant dose-dependent increase
C57Bl/6 mice [2]; single oral dose 40, 60 or 100 mg/kg, dark and light phases
  feeding patterns (food intake): did not reach statistical significance
C57Bl/6 mice [2]; [5]
  water consumption: no notable changes
C57Bl/6 mice [2]; single oral dose 60 and 100 mg/kg, light phase
  respiratory exchange ratio (RER): markedly increased
C57Bl/6 mice [2]; single oral dose, higher doses
  carbohydrate oxidation (CHO) rate: elevations
  fat oxidation (FO) rate: elevations
C57Bl/6 mice [2]; single oral dose, particularly at 60 mg/kg
  total daily TEE: significant elevation
C57Bl/6 mice [2]; single oral dose
  carbon dioxide production (VCO2): increases
  energy balance: did not lead to immediate changes
  oxygen consumption (VO2): increases
[3]
  7-dehydrocholesterol reductase (Dhcr) expression: no significant changes
  Acaca mRNA expression: significantly decreased
  Crebp expression: did not affect
  Dgat2 expression: did not affect
  Fabp1 mRNA expression: significantly decreased
  Fasn mRNA expression: significantly decreased
  G6pdx mRNA expression: significantly decreased
  Hmgcr expression: no significant changes
  LDL receptor (Lldr) expression: no significant changes
  Nr1h3 expression: no significant changes
  Pparg expression: did not affect
  Scd1 mRNA expression: significantly decreased
  Srebp1 expression: did not affect
  hormone-sensitive lipase (Hsl) mRNA expression: no significant changes
[3]; p < 0.05
  Cd36 mRNA expression: significantly downregulated
  lipoprotein lipase (Lpl) mRNA level: significant decrease
[4]
  binding inhibition: unaffected
5-HT1A receptor
  Ki: 2500 nM
5-HT2B receptor
  binding inhibition: modest binding inhibition
